Test results published in patent publication US9540389B2, “Antimicrobial potentiators” (priority 2013, dated 2017).

Test system: P. aeruginosa ATCC 27853
Test: MIC assay (microbroth dilution) ± 25 μM EPI
Assay type: cell-based, Pseudomonas aeruginosa
From the text: • Strains and Reagents. The following strains were obtained from the Keio collection (Baba, et al.: Construction of Escherichia coli K-12 in-frame, single-gene knockout mutants: the Keio collection. In Mol Syst Biol, vol. 2, pp. 2006 0008, (2006)): JW0451 (ΔacrB::kan), JW5503 (ΔtolC::kan), JW3234 (ΔacrF::kan), JW2661 (ΔemrB::kan), JW0863 (ΔmacB::kan). The deletion mutations in each of these strains were transferred to AB1157 using P1 phage transduction (see Table 1). The construction of the E. coli cell-based reporter strain (SOS-XXX) that was used for high throughput screening is described in detail in the supplementary information. […] Irgasan was a generous gift from Ciba Speciality Chemicals, Inc. (High Point, N.C.). Hoechst 33342 (H33342) was purchased from Molecular Probes (Eugene, Oreg.). […] Luria Broth (Miller) and agar were purchased as prepared dehydrated media from Becton Dickenson (Franklin Lakes, N.J.). The compound libraries used in high-throughput screens were purchased from Chembridge (San Diego, Calif.), ChemDiv (San Diego, Calif.), and TimTec (Newark, Del.). MBX2319 was synthesized by Microbiotix, Inc. • Antibacterial Activity Assays. The minimal inhibitory concentration (MIC) of antibacterial agents and biocides were determined using the microbroth dilution method essentially as described in the CLSI protocol M7-A7 (CLSI: Method for dilution antimicrobial susceptibility testing for bacteria that grow aerobically; Approved standard-document M7-A7. In Clinical and Laboratory Standards Institute document M7-A7, Clinical and Laboratory Standards Institute, Wayne, Pa., (2006)), with the following exceptions. LB media was used instead of MHB. […] The final concentration of DMSO in each assay was 2%. […] MIC assays were performed in triplicate and the geometric mean was calculated. Checkerboard MIC assays using an EPI and an antibacterial agent were performed essentially as described (Pillai, et al.: Antimicrobial Combinations. In Antibiotics in Laboratory Medicine, ed. by V. Lorian, pp. 365-440, Lippincott Williams & Wilkins, Philadelphia, Pa., (2005)), with the same modifications used for the MIC assays described above. • Time-Kill Assays. Killing curve assays were performed essentially as described (Pillai, et al.: Antimicrobial Combinations. In Antibiotics in Laboratory Medicine, ed. by V. Lorian, pp. 365-440, Lippincott Williams & Wilkins, Philadelphia, Pa., (2005)). Exponential bacterial cultures grown in LB were diluted to a cell density of ˜1×10^7 in LB followed by addition of CIP and/or an EPI. Viability was monitored over 2-4 hours by making serial dilutions in saline and spotting 5 μl of each dilution onto the surface of an LB agar plate in triplicate. Colonies were counted after the plates were incubated at 37° C. for 16-18 hr, colony forming units (CFU) per ml were calculated, and the average and standard deviation for the three replicates was determined. For treatments that decreased CFU/ml below the limit of detection for the spot plating method, the 100 μl samples were diluted into 5 ml LB top agar, were poured onto LB agar plates, and incubated for 18 hr at 37° C. To calculate the fraction of the control for each sample, the average CFU/ml values for treated samples were divided by those from the same sample at 0 h (time=0). Each experiment was repeated at least three times, and a representative experiment is shown. • H33342 Accumulation Assay. The rate of accumulation of the fluorescent dye Hoechst 33342 (H33342), which is a substrate of a wide variety of bacterial efflux pumps (van den Berg van Saparoea, et al., Biochemistry, vol. 44, pp. 16931-16938, (2005)), can be used to estimate the activity of the major efflux pumps in E. coli and many other bacterial species. The H33342 accumulation assay was used to evaluate the effect of EPIs on the activity of the AcrAB-TolC efflux pump in several bacterial species essentially as described (Coldham, et al., J Antimicrob Chemother, vol. 65, pp. 1655-1663, (2010)). […]

SMILES: CCN1CCN(C(=O)N[C@@H](C(=O)N[C@@H]2C(=O)N3[C@@H]2SC(C)(C)[C@@H]3C(=O)O)c2ccccc2)C(=O)C1=O [Piperacillin, piperacillin]
- MIC (μg/ml) ± EPI: MBX2319 (+ 25 μM MBX2319): 19 µg/mL
- MIC (μg/ml) ± EPI: PAβN (+ 25 μM PAβN): 19 µg/mL
- MIC Ratio MBX2319 (MIC no cmpd/MIC + 25 μM MBX2319): 0.84
- MIC Ratio PAβN (MIC no cmpd/MIC + 25 μM PAβN): 0.8
- MIC (Pseudomonas aeruginosa, ATCC27853, no EPI, read-out: MIC (μg/ml) ± EPI: None): 16 µg/mL
